In article PMC10557102 (Pharmacology Research & Perspectives, 2023):
Where “and” joins values, the source holds several entries; their conditions need not be identical. Equal values may be shown once. Read-outs that look alike come from different tables or passages of the source.

Legend:
CYP3A4 [1] = molecular target: T1, CYP3A4 (Homo sapiens, UniProt P08684); settings: cited from earlier work
CYP3A4 [2] = molecular target: T1, CYP3A4; assay: Cocktail DDI study: PK of midazolam and 1-OH midazolam with/without nivasorexant; settings: for t max: median (range); for AUC(0-t) / half-life: both, human, plasma, oral; for half-life: t ½; for t max median difference B–A / t max median difference D–A: median difference (90% CI); for t ½ ratio Trt B/Trt A / t ½ ratio Trt D/Trt A / AUC0–24 ratio Trt B/Trt A / C max ratio Trt B/Trt A / AUC0–24 ratio Trt D/Trt A / C max ratio Trt D/Trt A: ratio of geometric means (90% CI); for AUC0–24 ratio Trt B/Trt A / C max ratio Trt B/Trt A: initial nivasorexant dose vs cocktail alone; for AUC0–24 ratio Trt D/Trt A / C max ratio Trt D/Trt A: nivasorexant steady state vs cocktail alone
healthy subjects = assay: Safety and tolerability in the clinical study; settings: Day 1 to Day 15, healthy subjects
CYP2C19 [3] = molecular target: T2, CYP2C19 (Homo sapiens, UniProt P33261); settings: for C max / AUC0–24 / t ½: geometric mean (95% CI); for t max: median (range); for t max median difference B–A / t max median difference D–A: median difference (90% CI); for AUC0–24 ratio Trt B/Trt A / C max ratio Trt B/Trt A: initial nivasorexant dose vs cocktail alone
T2 sequence (P33261 whole entry): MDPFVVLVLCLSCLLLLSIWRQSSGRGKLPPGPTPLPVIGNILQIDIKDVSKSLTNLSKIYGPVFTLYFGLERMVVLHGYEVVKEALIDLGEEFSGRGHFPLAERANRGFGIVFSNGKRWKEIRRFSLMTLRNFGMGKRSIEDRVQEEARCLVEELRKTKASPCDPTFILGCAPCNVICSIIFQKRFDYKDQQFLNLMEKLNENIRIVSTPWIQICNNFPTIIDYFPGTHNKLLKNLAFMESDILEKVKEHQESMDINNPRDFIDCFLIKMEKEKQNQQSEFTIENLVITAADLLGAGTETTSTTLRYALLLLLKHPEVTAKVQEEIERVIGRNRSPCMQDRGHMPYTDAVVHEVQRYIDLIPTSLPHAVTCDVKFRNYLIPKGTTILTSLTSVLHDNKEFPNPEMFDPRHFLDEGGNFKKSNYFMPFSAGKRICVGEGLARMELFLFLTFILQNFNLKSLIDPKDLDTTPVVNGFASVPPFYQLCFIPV

CYP2C9 [4] = settings: for t max: median (range); for half-life: t ½; for t max median difference B–A / t max median difference D–A: median difference (90% CI); for t ½ ratio Trt B/Trt A / t ½ ratio Trt D/Trt A / AUC0–24 ratio Trt B/Trt A / C max ratio Trt B/Trt A / AUC0–24 ratio Trt D/Trt A / C max ratio Trt D/Trt A: ratio of geometric means (90% CI); for AUC0–24 ratio Trt B/Trt A / C max ratio Trt B/Trt A: initial nivasorexant dose vs cocktail alone; for AUC0–24 ratio Trt D/Trt A / C max ratio Trt D/Trt A: nivasorexant steady state vs cocktail alone
CYP2C19 [5] = molecular target: T2, CYP2C19; assay: clinical; settings: both, in vivo; for AUC(0-t) / half-life: geometric mean (95% CI); for half-life: t ½
CYP2C19 [6] = settings: 25 mg b.i.d. for 6 days; cited from earlier work
CYP2C9 [7] = molecular target: CYP2C9 (Homo sapiens, UniProt P11712); settings: with flurbiprofen, tolbutamide, and warfarin; cited from earlier work
Chain of CYP2C9 (Homo sapiens, UniProt P11712) (P11712 whole entry): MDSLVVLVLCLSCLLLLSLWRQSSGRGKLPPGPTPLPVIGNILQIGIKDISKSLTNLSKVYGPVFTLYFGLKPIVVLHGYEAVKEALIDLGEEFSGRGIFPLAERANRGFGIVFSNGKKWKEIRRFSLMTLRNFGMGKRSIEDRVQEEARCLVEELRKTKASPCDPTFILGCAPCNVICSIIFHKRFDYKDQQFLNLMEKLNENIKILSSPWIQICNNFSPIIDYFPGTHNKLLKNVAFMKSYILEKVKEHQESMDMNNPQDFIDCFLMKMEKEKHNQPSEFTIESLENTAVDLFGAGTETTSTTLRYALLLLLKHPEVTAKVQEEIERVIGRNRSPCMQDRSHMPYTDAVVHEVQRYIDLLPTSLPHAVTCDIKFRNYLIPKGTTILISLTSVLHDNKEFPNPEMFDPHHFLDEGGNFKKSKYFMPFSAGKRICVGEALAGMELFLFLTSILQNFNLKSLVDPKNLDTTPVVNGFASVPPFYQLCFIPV

[8] = Trt B, Day 8, cocktail + initial 100 mg nivasorexant, geometric mean (95% CI)
[9] = Trt A, Day 1, cocktail alone, geometric mean (95% CI)
[10] = Trt D, Day 15, cocktail + nivasorexant at steady state, geometric mean (95% CI)
[11] = Trt B, Day 8, cocktail + initial 100 mg nivasorexant
[12] = Trt D, Day 15, cocktail + nivasorexant at steady state
[13] = ratio of geometric means (90% CI)
[14] = ratio of geometric means (90% CI), nivasorexant steady state vs cocktail alone

T1 sequence (P08684 whole entry): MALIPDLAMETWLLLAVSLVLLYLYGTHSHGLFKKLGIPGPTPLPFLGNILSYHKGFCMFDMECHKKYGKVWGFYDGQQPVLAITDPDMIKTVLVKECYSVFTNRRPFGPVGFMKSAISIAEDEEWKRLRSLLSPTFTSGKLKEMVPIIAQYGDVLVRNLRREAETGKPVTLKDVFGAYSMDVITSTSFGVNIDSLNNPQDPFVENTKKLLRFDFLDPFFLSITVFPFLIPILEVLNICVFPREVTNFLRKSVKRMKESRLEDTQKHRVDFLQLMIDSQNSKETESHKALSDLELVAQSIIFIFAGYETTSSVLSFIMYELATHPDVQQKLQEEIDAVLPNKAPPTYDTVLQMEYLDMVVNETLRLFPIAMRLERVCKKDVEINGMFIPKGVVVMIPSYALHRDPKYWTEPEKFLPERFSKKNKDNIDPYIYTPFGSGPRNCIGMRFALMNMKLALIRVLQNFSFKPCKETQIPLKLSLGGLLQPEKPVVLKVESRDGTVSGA

## Cc1ncc2n1-c1ccc(Cl)cc1C(c1ccccc1F)=NC2 [midazolam]
CYP3A4 [1]; initial b.i.d. dosing with 200 mg nivasorexant
  increase in midazolam AUC: 1.8 fold
CYP3A4 [1]; repeated b.i.d. dosing (over 10 days) with 200 mg nivasorexant
  increase in midazolam AUC: 4.5 fold
CYP3A4 [2]; Trt A, Day 1, cocktail alone
  t max: 0.75 (0.50–3.00) h
CYP3A4 [2]; [8]
  AUC0–24: 22.7 (19.5–26.5) ng*h/mL
CYP3A4 [2]; AUC0–24, Trt A, Day 1, cocktail alone, geometric mean (95% CI)
  AUC(0-t): 14.6 ng·h/mL
CYP3A4 [2]; AUC0–24, Trt D, Day 15, cocktail + nivasorexant at steady state, geometric mean (95% CI)
  AUC(0-t): 54.8 ng·h/mL
CYP3A4 [2]; [9]
  half-life: 4.94 h
CYP3A4 [2]; [10]
  half-life: 6.75 h
CYP3A4 [2]
  t max median difference B–A: 0.00 (−0.13–0.13) h
  t max median difference D–A: 0.00 (−0.13–0.13) h
  t ½ ratio Trt B/Trt A: 1.67 (1.38–2.01)
  t ½ ratio Trt D/Trt A: 1.25 (1.07–1.46)
  AUC0–24 ratio Trt B/Trt A: 1.56 and 1.6
  C max ratio Trt B/Trt A: 1.34 (1.22–1.46)
  AUC0–24 ratio Trt D/Trt A: 3.71 and 3.7
  C max ratio Trt D/Trt A: 2.62 (2.31–2.97)
Healthy subjects
  safety and tolerability (in words): safe and well tolerated

## COc1ccc2nc([S+]([O-])Cc3ncc(CO)c(OC)c3C)[nH]c2c1 (stereo not shown) [5‐OH omeprazole]
CYP2C19 [3]; Trt A, Day 1, cocktail alone (omeprazole 20 mg)
  C max: 129 (110–151) ng/mL
CYP2C19 [3]; Trt A, Day 1, cocktail alone
  AUC0–24: 367 (332–406) ng*h/mL
  t ½: 1.34 (1.20–1.49) h
  t max: 3.00 (1.00–6.00) h
CYP2C19 [3]; [11]
  AUC0–24: 338 (314–363) ng*h/mL
  C max: 97.0 (85.0–110.7) ng/mL
  t ½: 1.53 (1.30–1.80) h
  t max: 3.49 (1.50–6.02) h
CYP2C19 [3]; [12]
  AUC0–24: 278 (253–305) ng*h/mL
  t ½: 2.03 (1.79–2.32) h
  t max: 4.00 (1.50–10.00) h
CYP2C19 [3]
  t max median difference B–A: 0.50 (0.00–1.16) h
  t max median difference D–A: 1.25 (0.75–2.00) h
CYP2C19 [3]; [13]
  t ½ ratio Trt B/Trt A: 1.14 (0.99–1.32)
  t ½ ratio Trt D/Trt A: 1.50 (1.36–1.66)
  AUC0–24 ratio Trt B/Trt A: 0.92 (0.85–1.00)
  C max ratio Trt B/Trt A: 0.75 (0.66–0.86)
CYP2C19 [3]; [14]
  AUC0–24 ratio Trt D/Trt A: 0.74 (0.67–0.82)

## CC(C(=O)O)c1ccc(-c2ccccc2)c(F)c1 (stereo not shown) [flurbiprofen]
CYP2C9 [4]; both, human, in vivo, 50 mg, C max, Trt A, Day 1, cocktail alone (flurbiprofen 50 mg), geometric mean (95% CI)
  Cmax: 6410 ng/mL
CYP2C9 [4]; both, human, in vivo, t max, Trt A, Day 1, cocktail alone
  t max: 2 h
CYP2C9 [4]; both, human, in vivo, t max, Trt D, Day 15, cocktail + nivasorexant at steady state
  t max: 2.5 h
CYP2C9 [4]; both, human, in vivo, Trt A, Day 1, cocktail alone, geometric mean (95% CI)
  half-life: 5.73 h
CYP2C9 [4]; both, human, in vivo, Trt D, Day 15, cocktail + nivasorexant at steady state, geometric mean (95% CI)
  half-life: 7.89 h
CYP2C9 [4]
  t max median difference B–A: 0.75 (0.00–1.51) h
  t max median difference D–A: 0.50 (−0.13–1.16) h
  t ½ ratio Trt B/Trt A: 1.11 (1.07–1.15)
  t ½ ratio Trt D/Trt A: 1.39 (1.31–1.47)
  AUC0–24 ratio Trt B/Trt A: 1.04
  C max ratio Trt B/Trt A: 0.97 (0.86–1.08)
  AUC0–24 ratio Trt D/Trt A: 1.47 and 1.5
  C max ratio Trt D/Trt A: 1.08 (0.97–1.20)
Healthy subjects
  safety and tolerability (in words): safe and well tolerated

## COc1ccc2[nH]c([S+]([O-])Cc3ncc(C)c(OC)c3C)nc2c1 (stereo not shown) [omeprazole]
CYP2C19 [5]; 20 mg
  Cmax: 162 ng/mL
CYP2C19 [5]; AUC0–24, Trt A, Day 1, cocktail alone
  AUC(0-t): 372 ng·h/mL
CYP2C19 [5]; AUC0–24, Trt D, Day 15, cocktail + nivasorexant at steady state
  AUC(0-t): 2670 ng·h/mL
CYP2C19 [5]; Trt A, Day 1, cocktail alone
  half-life: 0.99 h
CYP2C19 [5]; [12]
  half-life: 1.99 h
CYP2C19 [3]; Trt A, Day 1, cocktail alone
  t max: 3.00 (1.00–6.00) h
CYP2C19 [3]
  t max median difference B–A: 0.5 h
  t max median difference D–A: 1.00 h
CYP2C19 [3]; listed as Omeprazole
  t max median difference B–A: 0.50 (0.00–1.49) h
  t max median difference D–A: 1.00 (0.50–1.75) h
CYP2C19 [3]; [13]
  t ½ ratio Trt B/Trt A: 1.46 (1.24–1.72)
  t ½ ratio Trt D/Trt A: 2.01 (1.69–2.40)
  AUC0–24 ratio Trt B/Trt A: 2.05 and 2.1
  C max ratio Trt B/Trt A: 1.60 (1.30–1.97)
CYP2C19 [3]; [14]
  AUC0–24 ratio Trt D/Trt A: 6.84 and 6.8
  C max ratio Trt D/Trt A: 3.31 (2.55–4.28)
Healthy subjects
  safety and tolerability (in words): safe and well tolerated

## CC(C(=O)O)c1ccc(-c2ccc(O)cc2)c(F)c1 (stereo not shown) [4‐OH flurbiprofen, 4‐hydroxyflurbiprofen]
CYP2C9 [4]; Trt A, Day 1, cocktail alone (flurbiprofen 50 mg), geometric mean (95% CI)
  C max: 316 (278–359) ng/mL
CYP2C9 [4]; [9]
  AUC0–24: 2516 (2280–2778) ng*h/mL
  t ½: 7.85 (7.04–8.75) h
CYP2C9 [4]; Trt A, Day 1, cocktail alone
  t max: 3.00 (1.50–6.00) h
CYP2C9 [4]; [8]
  AUC0–24: 2366 (2138–2618) ng*h/mL
  C max: 289 (259–322) ng/mL
  t ½: 8.03 (7.28–8.87) h
CYP2C9 [4]; [11]
  t max: 3.00 (1.50–6.02) h
CYP2C9 [4]; [10]
  AUC0–24: 1924 (1763–2099) ng*h/mL
  t ½: 12.0 (10.0–14.3) h
CYP2C9 [4]; [12]
  t max: 3.00 (1.50–6.00) h
CYP2C9 [4]
  t max median difference B–A: 0.74 (−0.02–1.50) h
  t max median difference D–A: 0.50 (−0.04–1.00) h
  t ½ ratio Trt B/Trt A: 1.02 (0.97–1.09)
  t ½ ratio Trt D/Trt A: 1.54 (1.39–1.70)
  AUC0–24 ratio Trt B/Trt A: 0.94 (0.90–0.98)
  C max ratio Trt B/Trt A: 0.91 (0.87–0.96)
  AUC0–24 ratio Trt D/Trt A: 0.74 (0.70–0.79)
  C max ratio Trt D/Trt A: 0.53 (0.49–0.59)

## COCCCC/C(=N\OCCN)c1ccc(C(F)(F)F)cc1 [fluvoxamine]
CYP2C19 [6]
  increase in omeprazole exposure: 5.6 fold

## OC(Cn1cncn1)(Cn1cncn1)c1ccc(F)cc1F [fluconazole]
CYP2C9 [7]
  increase in AUC ratio of CYP2C9 probe substrates: approximately two‐fold

## OCc1ncc2n1-c1ccc(Cl)cc1C(c1ccccc1F)=NC2 [1‐OH midazolam, 1‐hydroxy (OH) midazolam]
CYP3A4 [2]; [9]
  AUC0–24: 8.50 (7.23–10.00) ng*h/mL
  t ½: 2.27 (1.58–3.25) h
CYP3A4 [2]; Trt A, Day 1, cocktail alone
  t max: 0.50 (0.50–3.00) h
CYP3A4 [2]; [8]
  AUC0–24: 8.64 (7.37–10.13) ng*h/mL
  C max: 4.12 (3.53–4.82) ng/mL
  t ½: 2.94 (2.04–4.22) h
CYP3A4 [2]; [11]
  t max: 0.75 (0.50–1.50) h
CYP3A4 [2]; [10]
  AUC0–24: 9.88 (8.02–12.18) ng*h/mL
  t ½: 9.04 (6.82–11.97) h
CYP3A4 [2]; [12]
  t max: 0.50 (0.50–1.50) h
CYP3A4 [2]
  t max median difference B–A: 0.00 (0.000–0.13) h
  t max median difference D–A: 0.00 (−0.13–0.13) h
  t ½ ratio Trt B/Trt A: 1.29 [1.03–1.62]
  t ½ ratio Trt D/Trt A: 3.05 (2.03–4.58)
  AUC0–24 ratio Trt B/Trt A: 1.02 (0.96–1.08)
  C max ratio Trt B/Trt A: 1.02 (0.91–1.15)
  AUC0–24 ratio Trt D/Trt A: 1.15 (1.06–1.24)
  C max ratio Trt D/Trt A: 0.86 (0.75–0.98)
CYP3A4 [2]; listed as 1‐OH Midazolam
  t ½ ratio Trt B/Trt A: 1.29 (1.03–1.62)
